Legend:
corn = test: Test B pre-/postemergence herbicide test; assay type: in vivo, Zea mays
Summary of the method: (§1)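 Pre: seeds sown, then sprayed. Post: 1–4-leaf plants (2–18 cm) sprayed at the same time. Paddy: flooded, treated at 2-leaf stage. Formulation: non-phytotoxic solvent with surfactant. Greenhouse 13–15 days; visual 0–100 score relative to controls.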

Surinam grass = test: Test B pre-/postemergence herbicide test; assay type: in vivo, Urochloa decumbens
Summary of the method: as §1

morningglory = test: Test B pre-/postemergence herbicide test; assay type: in vivo, Ipomoea coccinea
Summary of the method: (§2)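 Species tested were Echinochloa crus-galli, Ipomoea coccinea, Xanthium strumarium and Oryza sativa, treated both before emergence and at the 1- to 4-leaf stage; rice and barnyardgrass were also tested under flooding at 2 leaves. Greenhouse incubation lasted 13–15 days before visual 0–100 scoring.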

lambsquarters = test: Test B pre-/postemergence herbicide test; assay type: in vivo, Chenopodium album
Summary of the method: as §1

pigweed = test: Test B pre-/postemergence herbicide test; assay type: in vivo, Amaranthus retroflexus
Summary of the method: as §1

blackgrass = test: Test B postemergence herbicide test; assay type: in vivo, Alopecurus myosuroides
Summary of the method: (§3)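 Plants grow to 1- to 4-leaf stage (2–18 cm) for postemergence spraying, or to 2-leaf stage for the paddy test. Formulated compound is applied. Greenhouse holding lasts 13–15 days. Response is scored visually relative to controls, 0 no effect to 100 complete control; a dash means no result.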

giant foxtail = test: Test B pre-/postemergence herbicide test; assay type: in vivo, Setaria faberi
Summary of the method: as §1

barnyardgrass [1] = test: Test B flooded paddy test; assay type: in vivo, Echinochloa crus-galli; conditions: 1000 g ai/ha, scale 0 to 100 (0 no effect, 100 complete control)
Summary of the method: as §3

large crabgrass = test: Test B pre-/postemergence herbicide test; assay type: in vivo, Digitaria sanguinalis
Summary of the method: as §1

cocklebur = test: Test B pre-/postemergence herbicide test; assay type: in vivo, Xanthium strumarium
Summary of the method: as §2

wheat = test: Test B postemergence herbicide test; assay type: in vivo, Triticum aestivum; parameters: key to Wheat plant response rating: 0 = no effect, 100 = complete control
Summary of the method: (§4)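 After treating 2-leaf paddy plants or 2–18 cm postemergence plants (1 to 4 leaves) with formulated chemical, researchers kept them in a greenhouse for 13–15 days. Effects were judged visually versus controls: 0 indicates none, 100 total control.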

wild oat = test: Test B postemergence herbicide test; assay type: in vivo, Avena fatua
Summary of the method: as §4

[2] = tested on: small flower umbrella sedge; test: Test B flooded paddy test; assay type: in vivo, Cyperus difformis; conditions: 1000 g ai/ha, scale 0 to 100 (0 no effect, 100 complete control)
Summary of the method: as §3

barnyardgrass [3] = test: Test B pre-/postemergence herbicide test; assay type: in vivo, Echinochloa crus-galli
Summary of the method: as §2

ducksalad = test: Test B flooded paddy test; assay type: in vivo, Heteranthera limosa; conditions: 1000 g ai/ha, scale 0 to 100 (0 no effect, 100 complete control)
Summary of the method: as §3

rice = test: Test B flooded paddy test; assay type: in vivo, Oryza sativa; conditions: 1000 g ai/ha, scale 0 to 100 (0 no effect, 100 complete control)
Summary of the method: as §3

velvetleaf = test: Test B pre-/postemergence herbicide test; assay type: in vivo, Abutilon theophrasti
Summary of the method: as §1

[4] = Postemergence, 250 g ai/ha, scale 0 (no effect) to 100 (complete control)
[5] = postemergence, 62 g ai/ha, scale 0 to 100
[6] = 500 g ai/ha, visual rating 0-100, 0 no effect, 100 complete control, preemergence
[7] = Postemergence, 500 g ai/ha, visual rating after 13 to 15 days, scale 0 (no effect) to 100 (complete control)
[8] = postemergence, 125 g ai/ha, visual rating, scale 0 (no effect) to 100 (complete control)
[9] = preemergence, 125 g ai/ha, 0 to 100 scale, 0 is no effect, 100 is complete control
[10] = postemergence, 500 g ai/ha, visual rating, scale 0 (no effect) to 100 (complete control)
[11] = 125 g ai/ha, 0 is no effect, 100 is complete control, preemergence
[12] = 125 g ai/ha, visual rating, scale 0 (no effect) to 100 (complete control), postemergence
[13] = postemergence, 500 g ai/ha, scale 0 to 100, 0 is no effect, 100 is complete control
[14] = Postemergence, 500 g ai/ha, scale 0 (no effect) to 100 (complete control)

## CCOC(=O)c1ccc(F)c(NC(=O)c2cc(CC(C)C)nn2CC)c1 [Compound 72]
corn; [4]
  Corn plant response rating: 0
corn; [5]
  Corn plant response rating: 0
Surinam grass; [4]
  Surinam Grass plant response rating: 0
Surinam grass; [5]
  Surinam Grass plant response rating: 0
morningglory; [4]
  Morningglory plant response rating: 0
morningglory; [5]
  Morningglory plant response rating: 0
lambsquarters; [4]
  Lambsquarters plant response rating: 10
lambsquarters; [5]
  Lambsquarters plant response rating: 0
pigweed; [4]
  Pigweed plant response rating: 0
pigweed; [5]
  Pigweed plant response rating: 0
blackgrass; [4]
  Blackgrass plant response rating: 50
blackgrass; [5]
  Blackgrass plant response rating: 40
Giant foxtail; [4]
  Foxtail, Giant plant response rating: 0
Giant foxtail; [5]
  Foxtail, Giant plant response rating: 0
Barnyardgrass [1]; visual rating, 13 to 15 days
  Barnyardgrass plant response rating: 0
Large crabgrass; [4]
  Crabgrass, Large plant response rating: 0
Large crabgrass; [5]
  Crabgrass, Large plant response rating: 0
cocklebur; [4]
  Cocklebur plant response rating: 0
cocklebur; [5]
  Cocklebur plant response rating: 0
wheat; 250 g ai/ha, scale 0 to 100, 0 no effect, 100 complete control, preemergence
  Wheat plant response rating: 0
wheat; [4]
  Wheat plant response rating: 10
wheat; [5]
  Wheat plant response rating: 10
Wild oat; [4]
  Oat, Wild plant response rating: 30
Wild oat; [5]
  Oat, Wild plant response rating: 20
[2]; visual rating, 13 to 15 days
  Sedge, Umbrella plant response rating: 0
Barnyardgrass [3]; [4]
  Barnyardgrass plant response rating: 0
Barnyardgrass [3]; [5]
  Barnyardgrass plant response rating: 0
ducksalad; visual rating, 13 to 15 days
  Ducksalad plant response rating: 0
rice; visual rating, 13 to 15 days
  Rice plant response rating: 0
velvetleaf; [4]
  Velvetleaf plant response rating: 0
velvetleaf; [5]
  Velvetleaf plant response rating: 0

## COc1ccc(C(C)=NO)cc1NC(=O)c1cc(C(C)(C)C)nn1C [Compound 104]
corn; [6]
  Plant response rating, Corn: 0
corn; [7]
  Plant response rating, Corn: 0
corn; [8]
  Corn plant response rating: 0
corn; [9]
  Plant response rating, Corn: 0
Surinam grass; [6]
  Plant response rating, Surinam Grass: 20
Surinam grass; [7]
  Plant response rating, Surinam Grass: 10
Surinam grass; [8]
  Surinam Grass plant response rating: 0
Surinam grass; [9]
  Plant response rating, Surinam Grass: 0
morningglory; [6]
  Plant response rating, Morningglory: 20
morningglory; [7]
  Plant response rating, Morningglory: 0
morningglory; [8]
  Morningglory plant response rating: 0
morningglory; [9]
  Plant response rating, Morningglory: 0
lambsquarters; [6]
  Plant response rating, Lambsquarters: 80
lambsquarters; [7]
  Plant response rating, Lambsquarters: 20
lambsquarters; [8]
  Lambsquarters plant response rating: 0
lambsquarters; [9]
  Plant response rating, Lambsquarters: 60
pigweed; [6]
  Plant response rating, Pigweed: 70
pigweed; [7]
  Plant response rating, Pigweed: 10
pigweed; [8]
  Pigweed plant response rating: 10
pigweed; [9]
  Plant response rating, Pigweed: 60
blackgrass; [7]
  Plant response rating, Blackgrass: 0
blackgrass; [8]
  Blackgrass plant response rating: 0
Giant foxtail; [6]
  Plant response rating, Foxtail, Giant: 20
Giant foxtail; [7]
  Plant response rating, Foxtail, Giant: 0
Giant foxtail; [8]
  Foxtail, Giant plant response rating: 0
Giant foxtail; [9]
  Plant response rating, Foxtail, Giant: 0
Barnyardgrass [1]; visual rating, 13 to 15 days
  Barnyardgrass plant response rating: 0
Large crabgrass; [6]
  Plant response rating, Crabgrass, Large: 90
Large crabgrass; [7]
  Plant response rating, Crabgrass, Large: 0
Large crabgrass; [8]
  Crabgrass, Large plant response rating: 0
Large crabgrass; [9]
  Plant response rating, Crabgrass, Large: 80
cocklebur; [6]
  Plant response rating, Cocklebur: 0
cocklebur; [7]
  Plant response rating, Cocklebur: 0
cocklebur; [8]
  Cocklebur plant response rating: 0
cocklebur; [9]
  Plant response rating, Cocklebur: 0
wheat; [7]
  Plant response rating, Wheat: 0
wheat; [8]
  Wheat plant response rating: 0
Wild oat; [7]
  Plant response rating, Oat, Wild: 0
Wild oat; [8]
  Oat, Wild plant response rating: 0
[2]; visual rating, 13 to 15 days
  Sedge, Umbrella plant response rating: 70
Barnyardgrass [3]; [6]
  Plant response rating, Barnyardgrass: 80
Barnyardgrass [3]; [7]
  Plant response rating, Barnyardgrass: 0
Barnyardgrass [3]; [8]
  Barnyardgrass plant response rating: 0
Barnyardgrass [3]; [9]
  Plant response rating, Barnyardgrass: 0
ducksalad; visual rating, 13 to 15 days
  Ducksalad plant response rating: 60
rice; visual rating, 13 to 15 days
  Rice plant response rating: 0
velvetleaf; [6]
  Plant response rating, Velvetleaf: 0
velvetleaf; [7]
  Plant response rating, Velvetleaf: 0
velvetleaf; [8]
  Velvetleaf plant response rating: 0
velvetleaf; [9]
  Plant response rating, Velvetleaf: 0

## C=CCn1nc(C(C)(C)C)cc1C(=O)Nc1cccc(C(C)=O)c1 [Compound 129]
corn; [6]
  Plant response rating, Corn: 0
Surinam grass; [6]
  Plant response rating, Surinam Grass: 10
Surinam grass; [10]
  Surinam Grass plant response rating: 20
Surinam grass; [5]
  Surinam Grass plant response rating: 0
morningglory; [6]
  Plant response rating, Morningglory: 0
lambsquarters; [6]
  Plant response rating, Lambsquarters: 20
lambsquarters; [10]
  Lambsquarters plant response rating: 10
lambsquarters; [5]
  Lambsquarters plant response rating: 0
pigweed; [6]
  Plant response rating, Pigweed: 30
pigweed; [10]
  Pigweed plant response rating: 10
pigweed; [5]
  Pigweed plant response rating: 0
blackgrass; [10]
  Blackgrass plant response rating: 0
blackgrass; [5]
  Blackgrass plant response rating: 0
Giant foxtail; [6]
  Plant response rating, Foxtail, Giant: 20
Giant foxtail; [10]
  Foxtail, Giant plant response rating: 10
Giant foxtail; [5]
  Foxtail, Giant plant response rating: 10
Barnyardgrass [1]; visual rating, 13 to 15 days
  Barnyardgrass plant response rating: 30
Large crabgrass; [6]
  Plant response rating, Crabgrass, Large: 90
Large crabgrass; [10]
  Crabgrass, Large plant response rating: 10
Large crabgrass; [5]
  Crabgrass, Large plant response rating: 0
cocklebur; [6]
  Plant response rating, Cocklebur: 20
cocklebur; [10]
  Cocklebur plant response rating: 60
cocklebur; [5]
  Cocklebur plant response rating: 60
wheat; [10]
  Wheat plant response rating: 0
wheat; [5]
  Wheat plant response rating: 0
Wild oat; [10]
  Oat, Wild plant response rating: 0
Wild oat; [5]
  Oat, Wild plant response rating: 0
[2]; visual rating, 13 to 15 days
  Sedge, Umbrella plant response rating: 80
Barnyardgrass [3]; [6]
  Plant response rating, Barnyardgrass: 60
Barnyardgrass [3]; [10]
  Barnyardgrass plant response rating: 0
Barnyardgrass [3]; [5]
  Barnyardgrass plant response rating: 0
ducksalad; visual rating, 13 to 15 days
  Ducksalad plant response rating: 70
rice; visual rating, 13 to 15 days
  Rice plant response rating: 10
velvetleaf; [6]
  Plant response rating, Velvetleaf: 10
velvetleaf; [10]
  Velvetleaf plant response rating: 20
velvetleaf; [5]
  Velvetleaf plant response rating: 0

## C#CCNC(=O)c1cccc(NC(=O)c2nn(C(C)C)nc2CC)c1 [Compound 379]
corn; [11]
  Plant response rating (0 to 100 scale), Corn: 0
corn; [12]
  Corn plant response rating: 0
corn; [13]
  Corn plant response rating: 0
Surinam grass; [11]
  Plant response rating (0 to 100 scale), Surinam Grass: 0
Surinam grass; [12]
  Surinam Grass plant response rating: 10
Surinam grass; [14]
  Surinam Grass plant response rating: 20
morningglory; [11]
  Plant response rating (0 to 100 scale), Morningglory: 10
morningglory; [12]
  Morningglory plant response rating: 20
morningglory; [14]
  Morningglory plant response rating: 40
lambsquarters; [11]
  Plant response rating (0 to 100 scale), Lambsquarters: 0
lambsquarters; [12]
  Lambsquarters plant response rating: 20
lambsquarters; [14]
  Lambsquarters plant response rating: 50
pigweed; [11]
  Plant response rating (0 to 100 scale), Pigweed: 20
pigweed; [12]
  Pigweed plant response rating: 20
pigweed; [14]
  Pigweed plant response rating: 50
blackgrass; [12]
  Blackgrass plant response rating: 0
blackgrass; [13]
  Blackgrass plant response rating: 0
Giant foxtail; [11]
  Plant response rating (0 to 100 scale), Foxtail, Giant: 0
Giant foxtail; [12]
  Foxtail, Giant plant response rating: 10
Giant foxtail; [13]
  Foxtail, Giant plant response rating: 10
Barnyardgrass [1]
  Barnyardgrass plant response rating: 40
Large crabgrass; [11]
  Plant response rating (0 to 100 scale), Crabgrass, Large: 20
Large crabgrass; [12]
  Crabgrass, Large plant response rating: 10
Large crabgrass; [13]
  Crabgrass, Large plant response rating: 10
cocklebur; [11]
  Plant response rating (0 to 100 scale), Cocklebur: 0
cocklebur; [12]
  Cocklebur plant response rating: 0
cocklebur; [13]
  Cocklebur plant response rating: 10
wheat; [12]
  Wheat plant response rating: 0
wheat; 500 g ai/ha, scale 0 to 100, 0 no effect, 100 complete control, preemergence
  Wheat plant response rating: 20
wheat; [14]
  Wheat plant response rating: 0
Wild oat; [12]
  Oat, Wild plant response rating: 0
Wild oat; [14]
  Oat, Wild plant response rating: 0
[2]
  Sedge, Umbrella plant response rating: 70
Barnyardgrass [3]; [11]
  Plant response rating (0 to 100 scale), Barnyardgrass: 0
Barnyardgrass [3]; [12]
  Barnyardgrass plant response rating: 0
Barnyardgrass [3]; [13]
  Barnyardgrass plant response rating: 0
ducksalad
  Ducksalad plant response rating: 70
rice
  Rice plant response rating: 50
velvetleaf; [11]
  Plant response rating (0 to 100 scale), Velvetleaf: 10
velvetleaf; [12]
  Velvetleaf plant response rating: 0
velvetleaf; [14]
  Velvetleaf plant response rating: 10

From patent US20060069132A1, “Azolecarboxamide herbicides” (priority 2004, published 2006)
